Laboratory results from article PMC12300835, “Geographic Influence and Metabolomics-Driven Discovery of 5-Alpha Reductase Inhibitors in Tectona grandis L.f. (Teak) Leaves” (Molecules, 2025).
Each block holds one compound with its values, some of them ahead of it.

What was measured:
[1] = molecular target: T1, S5AR enzyme derived from LNCaP cells (Homo sapiens, UniProt P18405); settings: taken from previous publication; read-out: S5AR Inhibitory Activity (IC50); cited from earlier work
T1 sequence (P18405 1-259): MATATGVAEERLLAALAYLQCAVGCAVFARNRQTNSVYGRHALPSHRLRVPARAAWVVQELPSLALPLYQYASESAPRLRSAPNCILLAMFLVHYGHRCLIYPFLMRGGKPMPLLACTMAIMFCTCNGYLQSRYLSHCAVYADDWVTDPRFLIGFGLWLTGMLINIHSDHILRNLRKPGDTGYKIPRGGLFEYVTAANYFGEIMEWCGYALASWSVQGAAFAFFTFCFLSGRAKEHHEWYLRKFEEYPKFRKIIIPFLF

[2] = molecular target: T1, S5AR enzyme derived from LNCaP cells; assay: S5AR inhibition assay (DHT production quantified by LC-MS); format: biochemical; settings: read-out: S5AR percentage inhibition

Structure (SMILES): CC(C)(C)NC(=O)[C@H]1CC[C@H]2[C@@H]3CC[C@H]4NC(=O)C=C[C@]4(C)[C@H]3CC[C@]12C [Finasteride]
IC50 [1]: 760 ± 30 nM

inhibition at 300 µM ([2]; final concentration of 300 µM): 41.4%
Structure (SMILES): CC1=C(CC[C@@H](C)CC(=O)O)[C@@]2(C)CCCC(C)(C)C2CC1=O (stereo partly drawn) [Compound 2, 7-Oxo-8-labden-15-oic acid]

Structure (SMILES): COc1cc(/C=C/C(=O)CC(=O)/C=C/c2ccc(O)c(OC)c2)ccc1O [Curcumin]
inhibition at 50 µg/mL [2]: 92.73 ± 0.14%
